From ChEMBL document CHEMBL5113512, “β-Nitrostyrene derivatives as broad range potential antifungal agents targeting fungal cell wall” (2022)
≈ marks a conversion by molar mass, not a printed value. Calls of active or inactive are those of the source. The rule behind the calls is not given here.

Tests used:
[1] = tested on: Candida; assay: Downregulation of RLM1 gene expression in Candida cells; format: functional, cell-based
[2] = tested on: [Candida] auris; assay: Induction of ROS generation in Candida auris CBS10913 at sub-inhibitory concentration incubated for 1 hr by DCFDA staining-based flow cytometric analysis; format: functional, organism-based; conditions: Candidozyma auris
[3] = tested on: Candida albicans; assay: Synergistic antifungal activity against Candida albicans SN152 harboring CAS5 mutant assessed as fractional inhibitory concentration index incubated for 48 hrs in presence of Caspofungin by checker board assay; format: functional
[4] = tested on: Candida albicans; assay: Synergistic antifungal activity against wild type Candida albicans SN152 assessed as fluconazole MIC incubated for 48 hrs by checker board assay; format: functional
[5] = tested on: Candida albicans; assay: Induction of ROS generation in Candida albicans ATCC 24433 at sub-inhibitory concentration incubated for 1 hr by DCFDA staining-based flow cytometric analysis; format: functional, organism-based
[6] = tested on: Candida albicans; assay: Antifungal activity against Candida albicans ATCC 24433 overexpressing transporter protein GU5 assessed as inhibition of fungal growth by broth microdilution method; format: functional
[7] = tested on: Candida; assay: Upregulation of LSC1 gene expression in Candida cells; format: functional, cell-based
[8] = tested on: Candida albicans; assay: Antifungal activity against Candida albicans SN152 harboring CAS5 mutant assessed as inhibition of fungal growth by broth microdilution method; format: functional
[9] = tested on: Candida; assay: Downregulation of BMT5 gene expression in Candida cells; format: functional, cell-based
[10] = tested on: Candida albicans; assay: Synergistic antifungal activity against Candida albicans ATCC 24433 assessed as fractional inhibitory concentration index incubated for 48 hrs in presence of Calcoflour White by checker board assay; format: functional
[11] = tested on: Candida albicans; assay: Fungicidal activity against Candida albicans ATCC 24433 assessed as reduction in fungal growth by measuring reduction in colony count at sub-MIC concentration measured after 48 hrs by time kill assay; format: functional, organism-based
[12] = tested on: Candida albicans; assay: Upregulation of CaPHO15 gene expression in Candida albicans ATCC 24433 assessed as increase in glycerol content at sub-inhibitory concentration incubated for 2 hrs; format: functional
[13] = tested on: Candida parapsilosis; assay: Synergistic antifungal activity against Candida parapsilosis ATCC 90018 assessed as inhibition of fungal growth incubated for 48 hrs in presence of SDS by checker board assay; format: functional; conditions: Lodderomyces parapsilosis
[14] = tested on: Candida; assay: Downregulation of STT4 gene expression in Candida cells; format: functional, cell-based
[15] = tested on: Candida; assay: Downregulation of CCT2 gene expression in Candida cells; format: functional, cell-based
[16] = tested on: [Candida] auris; assay: Synergistic antifungal activity against Candida auris CBS10913 assessed as Calcoflour White MIC incubated for 48 hrs by checker board assay; format: functional; conditions: Candidozyma auris
[17] = tested on: Candida albicans; assay: Antifungal activity against wild type Candida albicans SN152 assessed as inhibition of fungal growth by broth microdilution method; format: functional
[18] = tested on: Candida albicans; assay: Synergistic antifungal activity against wild type Candida albicans SN152 assessed as inhibition of fungal growth incubated for 48 hrs in presence of Amphotericin B by checker board assay; format: functional
[19] = tested on: Candida parapsilosis; assay: Antifungal activity against Candida parapsilosis ATCC 90018 assessed as inhibition of fungal growth by broth microdilution method; format: functional; conditions: Lodderomyces parapsilosis
[20] = tested on: Candida; assay: Upregulation of ARG6 gene expression in Candida cells; format: functional, cell-based
[21] = tested on: Candida albicans; assay: Synergistic antifungal activity against Candida albicans SN152 harboring CAS5 mutant assessed as inhibition of fungal growth incubated for 48 hrs in presence of Amphotericin B by checker board assay; format: functional
[22] = tested on: Candida albicans; assay: Synergistic antifungal activity against wild type Candida albicans SN152 assessed as Caspofungin MIC incubated for 48 hrs by checker board assay; format: functional
[23] = tested on: [Candida] auris; assay: Synergistic antifungal activity against Candida auris CBS10913 assessed as inhibition of fungal growth incubated for 48 hrs in presence of SDS by checker board assay; format: functional; conditions: Candidozyma auris
[24] = tested on: Candida albicans; assay: Upregulation of NAG4 gene expression in Candida albicans ATCC 24433 by qRT-PCR analysis; format: functional
[25] = tested on: Candida albicans; assay: Synergistic antifungal activity against Candida albicans SN152 harboring CAS5 mutant assessed as Amphotericin B MIC incubated for 48 hrs by checker board assay; format: functional
[26] = tested on: [Candida] auris; assay: Induction of ROS generation in Candida auris CBS10913 assessed as increase in relative fluorescence unit at sub-inhibitory concentration incubated for 1 hr by DCFDA staining-based flow cytometric analysis; format: functional, organism-based; conditions: Candidozyma auris
[27] = tested on: Candida; assay: Downregulation of VTC3 gene expression in Candida cells; format: functional, cell-based
[28] = tested on: Candida albicans; assay: Synergistic antifungal activity against Candida albicans ATCC 24433 overexpressing ADPDR5-G assessed as fractional inhibitory concentration index incubated for 48 hrs in presence of caspofungin by checker board assay; format: functional
[29] = tested on: Candida; assay: Upregulation of CPA2 gene expression in Candida cells; format: functional, cell-based
[30] = tested on: Candida tropicalis; assay: Antifungal activity against Candida tropicalis ATCC 750 assessed as inhibition of fungal growth by broth microdilution method; format: functional
[31] = tested on: Candida; assay: Downregulation of TCP1 gene expression in Candida cells; format: functional, cell-based
[32] = tested on: Candida albicans; assay: Downregulation of CAS5 gene expression in Candida albicans ATCC 24433 by qRT-PCR analysis; format: functional
[33] = tested on: Candida; assay: Downregulation of BMT4 gene expression in Candida cells; format: functional, cell-based
[34] = tested on: [Candida] auris; assay: Synergistic antifungal activity against Candida auris CBS10913 assessed as fractional inhibitory concentration index incubated for 48 hrs in presence of Calcoflour White by checker board assay; format: functional, Candidozyma auris
[35] = tested on: Cell membrane; assay: Disruption of membrane integrity in Candida albicans ATCC 24433 assessed as cell shrinkage and lysis by measuring leakage of intracellular material measured after 6 hrs by SEM analysis; format: subcellular
[36] = tested on: Candida parapsilosis; assay: Synergistic antifungal activity against Candida parapsilosis ATCC 90018 assessed as SDS MIC incubated for 48 hrs by checker board assay; format: functional; conditions: Lodderomyces parapsilosis
[37] = tested on: Candida parapsilosis; assay: Synergistic antifungal activity against Candida parapsilosis ATCC 90018 assessed as inhibition of fungal growth incubated for 48 hrs in presence of Congo red by checker board assay; format: functional; conditions: Lodderomyces parapsilosis
[38] = tested on: Candida; assay: Upregulation of CPA1 gene expression in Candida cells; format: functional, cell-based
[39] = tested on: [Candida] auris; assay: Synergistic antifungal activity against Candida auris CBS10913 assessed as SDS MIC incubated for 48 hrs by checker board assay; format: functional; conditions: Candidozyma auris
[40] = tested on: [Candida] auris; assay: Antifungal activity against Candida auris 105 assessed as inhibition of fungal growth by broth microdilution method; format: functional; conditions: Candidozyma auris
[41] = tested on: Candida albicans; assay: Synergistic antifungal activity against Candida albicans SN152 harboring CAS5 mutant assessed as fractional inhibitory concentration index incubated for 48 hrs in presence of Amphotericin B by checker board assay; format: functional
[42] = tested on: Candida parapsilosis; assay: Synergistic antifungal activity against Candida parapsilosis ATCC 90018 assessed as inhibition of fungal growth incubated for 48 hrs in presence of Calcoflour White by checker board assay; format: functional; conditions: Lodderomyces parapsilosis
[43] = tested on: Candida; assay: Upregulation of PLB5 gene expression in Candida cells; format: functional, cell-based
[44] = tested on: Candida albicans; assay: Synergistic antifungal activity against Candida albicans ATCC 24433 assessed as fractional inhibitory concentration index incubated for 48 hrs in presence of caspofungin by checker board assay; format: functional
[45] = tested on: [Candida] auris; assay: Synergistic antifungal activity against Candida auris CBS10913 assessed as Congo red MIC incubated for 48 hrs by checker board assay; format: functional; conditions: Candidozyma auris
[46] = tested on: Candida parapsilosis; assay: Synergistic antifungal activity against Candida parapsilosis ATCC 90018 assessed as fractional inhibitory concentration index incubated for 48 hrs in presence of Congo red by checker board assay; format: functional
[47] = tested on: Candida albicans; assay: Synergistic antifungal activity against Candida albicans ATCC 24433 assessed as Congo red MIC incubated for 48 hrs by checker board assay; format: functional
[48] = tested on: Candida; assay: Downregulation of CAS5 gene expression in Candida cells; format: functional, cell-based

## O=[N+]([O-])/C=C/c1ccc(O)cc1
[1]
  Activity: Active
[2]
  Activity: Active
[3]
  fractional inhibitory concentration index (FICI): 0.5
[4]
  MIC: 0.25 µg/mL
[5]
  Activity: Active
[6]
  MIC80: 4 µg/mL (≈ 24.2 µM)
[7]
  Activity: Active
[8]
  MIC80: 2 µg/mL (≈ 12.1 µM)
[9]
  Activity: Active
[10]
  fractional inhibitory concentration index (FICI): 0.25
[11]
  Activity: Active
[12]
  Activity: Active
[13]
  MIC: 1 µg/mL
[14]
  Activity: Active
[15]
  Activity: Active
[16]
  MIC: 25 µg/mL
[17]
  MIC80: 8 µg/mL (≈ 48.4 µM)
[18]
  MIC: 0.0625 µg/mL
[19]
  MIC80: 8 µg/mL (≈ 48.4 µM)
[20]
  Activity: Active
[21]
  MIC: 0.0312 µg/mL
[22]
  MIC: 0.0312 µg/mL
[23]
  MIC: 0.5 µg/mL
[24]
  Activity: Active
[25]
  MIC: 0.25 µg/mL
[26]
  Activity: Active
[27]
  Activity: Active
[28]
  fractional inhibitory concentration index (FICI): <0.5
[29]
  Activity: Active
[30]
  MIC80: 4 µg/mL (≈ 24.2 µM)
[31]
  Activity: Active
[32]
  Activity: Active
[33]
  Activity: Active
[34]
  fractional inhibitory concentration index (FICI): 0.625
[35]
  Activity: Active
[36]
  MIC: 25 µg/mL
[37]
  MIC: 0.0312 µg/mL
[38]
  Activity: Active
[39]
  MIC: 60 µg/mL
[40]
  MIC80: 2 µg/mL (≈ 12.1 µM)
[41]
  fractional inhibitory concentration index (FICI): 0.515
[42]
  MIC: 0.0078 µg/mL
[43]
  Activity: Active
[44]
  fractional inhibitory concentration index (FICI): <3.5
[45]
  MIC: 100 µg/mL
[46]
  fractional inhibitory concentration index (FICI): 0.25
[47]
  MIC: 3.12 µg/mL
[48]
  Activity: Active
